According to patent US11021444B2, “Antiviral compounds” (priority 2013, dated 2021):
Read-outs that look alike come from different tables or passages of the source.

Tests used:
recombinant RSV complex = recombinant RSV complex (Human respiratory syncytial virus A, UniProt P28887); experiment: RSV Polymerase Inhibition Assay; format: biochemical
Protocol: Standard RSV polymerase assays were conducted in the presence of 10 nM recombinant RSV complex in a reaction buffer containing Tris-HCl pH7.5, 6 mM MgCl2, and other additives and substrates including RNA oligonucleotides and radionucleotides. Standard reactions were incubated in 96-well plate format for 2 h at 30° C., in the presence of increasing concentration of inhibitor. The reaction was stopped with 90 μL of 0.1M EDTA, and the reaction product was transferred to a “reading” 96-well plate. After washing of the plate, radiolabeled RNA products were detected according to standard procedures with a Trilux Topcount scintillation counter.

[1] = Cytotoxicity Determination (CCK-8, without addition of virus); format: cell-based; conditions: human, 50% cytotoxicity concentration (CC50)
Protocol: (§1) CPE reduction assays are performed as described by Sidwell and Huffman et al., Appl. Microbiol. (1971) 22(5):797-801 with slight modifications. HEp-2 cells (ATCC #, CCL-23) are seeded at a density of 1,500 cells/30 μl/well into the 384-well cell plate(s) (Corning #3701) one day prior to the assay. Compounds are added into 384-well cell plates by Labcyte POD 810 Plate Assembler system. Each of the test compounds is provided to duplicate wells of a 384-well cell plate at final concentrations starting from 100 μM or 1 μM using 1/3 stepwise dilutions for 9 points. Quick-thaw Respiratory Syncytial Virus (RSV) long strain (ATCC #VR-26) stock in a 37° C. water bath. Place on ice until ready to use. Viruses are diluted to the concentration of 100 TCID50/30 μL with medium and 30 μl diluted RSV are added into related wells of 384-well cell plates. For each plate, sixteen wells are set aside as uninfected, untreated cell controls (CC), and nine wells per test plate receive virus only as a control for virus replication (VC). The final DMSO concentration of all wells is 1%. Place the plates at 37° C., 5% CO2 for 5 days.
In order to determine the compound cytotoxicity, in parallel, each of the compounds is applied to duplicate wells in a 384-well cell plate at serial final concentrations starting from 100 μM using 1/2 stepwise dilutions for 7 points without addition of virus. Incubate the cells at 37° C., 5% CO2 for 5 days. Add 6 μL CCK-8 into each well and incubate in a CO2 incubator at 37° C. for 3-4 hours.

[2] = tested on: Respiratory Syncytial Virus (RSV) long strain; experiment: microbe, parasite or virus in culture; format: cell-based; conditions: human respiratory syncytial virus, Tables A and B list compounds by EC50 band
Protocol: as §1
After 5 days incubation, observe the CPE of cells in all wells. […] Six μl of cell counting kit-8 reagent (CCK-8, Dojindo Molecular Technologies Inc., CK04-20) are added to each well, which allows colorimetric assays to determine the number of viable cells through the dehydrogenase activity detection. After 3-4 hour incubation, the absorbance of each well is measured with a spectrophotometric plate reader at 450 nm wavelength, using a 630 nm filter as background according to manufacturer's instruction.

[3] = HEp-2, 120 h, read-out: 50% effective concentration (EC50), HEp-2 cells infected with RSV long strain, 5 days, CCK-8 readout
[4] = 120 h, read-out: 50% effective concentration (EC50), HEp-2 cells infected with RSV long strain, 5 days, CCK-8 readout

Chain of recombinant RSV complex (P28887 whole entry): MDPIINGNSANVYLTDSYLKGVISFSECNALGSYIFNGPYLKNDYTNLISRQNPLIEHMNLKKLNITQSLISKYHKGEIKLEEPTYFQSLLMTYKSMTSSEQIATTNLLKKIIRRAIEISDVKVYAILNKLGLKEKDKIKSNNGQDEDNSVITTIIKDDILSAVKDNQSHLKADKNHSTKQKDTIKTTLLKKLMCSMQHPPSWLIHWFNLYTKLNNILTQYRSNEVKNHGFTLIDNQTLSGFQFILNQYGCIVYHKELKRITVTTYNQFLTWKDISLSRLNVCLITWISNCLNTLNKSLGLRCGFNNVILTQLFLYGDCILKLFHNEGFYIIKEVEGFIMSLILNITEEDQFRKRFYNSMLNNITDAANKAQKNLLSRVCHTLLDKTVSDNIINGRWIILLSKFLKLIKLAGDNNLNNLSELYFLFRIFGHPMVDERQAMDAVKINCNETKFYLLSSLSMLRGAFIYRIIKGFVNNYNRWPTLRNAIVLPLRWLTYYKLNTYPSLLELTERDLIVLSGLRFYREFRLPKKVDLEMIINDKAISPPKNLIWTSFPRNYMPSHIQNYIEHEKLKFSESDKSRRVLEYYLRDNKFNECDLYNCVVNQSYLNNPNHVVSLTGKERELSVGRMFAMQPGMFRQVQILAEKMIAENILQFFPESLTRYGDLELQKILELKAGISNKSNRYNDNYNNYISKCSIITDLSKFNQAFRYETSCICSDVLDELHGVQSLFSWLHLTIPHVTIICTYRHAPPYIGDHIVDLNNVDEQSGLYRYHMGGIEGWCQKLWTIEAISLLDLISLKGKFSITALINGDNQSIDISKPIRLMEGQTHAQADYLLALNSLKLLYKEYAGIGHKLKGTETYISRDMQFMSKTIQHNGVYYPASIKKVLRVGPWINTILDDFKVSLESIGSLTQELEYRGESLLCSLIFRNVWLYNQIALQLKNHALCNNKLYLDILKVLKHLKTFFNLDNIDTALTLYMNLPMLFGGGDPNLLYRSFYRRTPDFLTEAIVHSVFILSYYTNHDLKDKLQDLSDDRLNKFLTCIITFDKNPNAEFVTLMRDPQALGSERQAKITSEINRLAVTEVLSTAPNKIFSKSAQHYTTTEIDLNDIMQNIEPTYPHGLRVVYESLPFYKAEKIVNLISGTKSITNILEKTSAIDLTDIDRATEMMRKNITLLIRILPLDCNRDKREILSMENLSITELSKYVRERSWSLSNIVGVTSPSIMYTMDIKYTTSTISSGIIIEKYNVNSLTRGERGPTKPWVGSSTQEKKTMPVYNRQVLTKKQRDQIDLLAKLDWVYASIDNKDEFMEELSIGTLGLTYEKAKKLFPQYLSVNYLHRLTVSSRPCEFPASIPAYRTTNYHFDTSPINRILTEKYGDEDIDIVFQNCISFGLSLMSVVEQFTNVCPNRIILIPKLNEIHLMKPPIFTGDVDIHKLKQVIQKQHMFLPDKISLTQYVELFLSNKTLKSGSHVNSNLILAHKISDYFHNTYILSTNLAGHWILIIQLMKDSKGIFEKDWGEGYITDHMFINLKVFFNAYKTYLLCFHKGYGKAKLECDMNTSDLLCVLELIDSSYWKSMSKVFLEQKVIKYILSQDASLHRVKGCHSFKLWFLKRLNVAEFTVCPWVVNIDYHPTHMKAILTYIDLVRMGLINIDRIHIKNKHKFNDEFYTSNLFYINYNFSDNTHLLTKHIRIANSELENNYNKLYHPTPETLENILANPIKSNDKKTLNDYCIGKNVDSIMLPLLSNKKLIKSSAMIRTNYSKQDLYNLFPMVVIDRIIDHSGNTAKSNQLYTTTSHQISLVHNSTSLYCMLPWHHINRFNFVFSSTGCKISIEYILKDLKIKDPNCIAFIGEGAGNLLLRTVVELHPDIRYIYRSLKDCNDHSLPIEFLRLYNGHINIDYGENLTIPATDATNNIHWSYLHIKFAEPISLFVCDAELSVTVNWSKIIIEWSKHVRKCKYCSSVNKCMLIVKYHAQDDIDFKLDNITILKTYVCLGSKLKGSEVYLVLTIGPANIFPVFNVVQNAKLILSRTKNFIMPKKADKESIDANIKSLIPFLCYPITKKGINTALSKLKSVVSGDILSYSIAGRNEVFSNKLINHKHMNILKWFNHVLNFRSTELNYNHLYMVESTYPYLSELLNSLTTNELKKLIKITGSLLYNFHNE
Chain of recombinant RSV complex (P03421 whole entry, further chain): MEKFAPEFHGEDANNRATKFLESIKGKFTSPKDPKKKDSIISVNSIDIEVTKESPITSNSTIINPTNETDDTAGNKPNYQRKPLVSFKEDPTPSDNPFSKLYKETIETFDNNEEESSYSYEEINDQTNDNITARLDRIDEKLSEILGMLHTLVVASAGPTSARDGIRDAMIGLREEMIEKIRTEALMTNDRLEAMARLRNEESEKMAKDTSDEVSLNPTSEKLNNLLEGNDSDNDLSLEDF

SMILES | IC50 (recombinant RSV complex) | CC50 at 5 days [1] | EC50 [2, 3] | EC50 [2, 4]
COc1cc(C(=O)NCC(C)(CO)c2ccc(OC)c(-c3ccc(F)c(Cl)c3)n2)ccc1OCCO (centres unmarked) [Compound 471] | < 10 µM | 10 to 100 µM | 1 to 50 µM | –
CC(C)(N)c1cc(-c2ccc(F)cc2)nc(C(O)(CNC(=O)c2ccc3c(c2)NC(=O)C3)C(F)(F)F)c1 (centres unmarked) [Compound 570] | < 1 µM | 10 to 100 µM | – | < 1 µM
COc1cc(C(=O)NCC(O)(c2cc(C(C)(C)N)cc(-c3ccc(F)c(Cl)c3)n2)C(F)(F)F)ccc1NC(C)=O (centres unmarked) [Compound 592] | < 10 µM | 10 to 100 µM | < 1 µM | –
COc1cc(C(=O)NCC(O)(c2cc(C(C)(N)CO)cc(-c3ccc(F)cc3)n2)C(F)(F)F)ccc1OCCO (centres unmarked) [Compound 484] | < 10 µM | > 100 µM | 1 to 50 µM | –
COc1cc(C(=O)NCC(O)(c2cc3c(c(-c4ccc(F)cc4)n2)OCC3(N)C(C)C)C(F)(F)F)ccc1OC[C@@H](C)O (some centres unmarked) [Compound 568] | < 1 µM | 10 to 100 µM | < 1 µM | –
COc1cc(C(=O)NCC(O)(c2cc3c(c(-c4ccc(F)cc4)n2)OCC3(C)N)C(F)(F)F)ccc1OC1CC(O)C1 (centres unmarked) [Compound 597] | < 10 µM | 10 to 100 µM | < 1 µM | –
COc1ccc(C(O)(CNC(=O)c2ccc3[nH]c(=O)n(C)c3c2)C(F)(F)F)nc1-c1ccc(F)c(Cl)c1 (centres unmarked) [Compound 267] | < 1 µM | 10 to 100 µM | < 1 µM | –
COc1cc(C(=O)NCC(C)(O)c2cc3cc[nH]c3c(-c3ccc(F)c(Cl)c3)n2)ccc1OCCF (single isomer, unassigned) [Compound 296] | < 10 µM | 10 to 100 µM | < 1 µM | –
COc1ccc(C(O)(CNC(=O)c2ccc(OC3CCNC3=O)cc2)C(F)(F)F)nc1-c1ccc(F)c(Cl)c1 (centres unmarked) [Compound 261] | < 1 µM | 10 to 100 µM | < 1 µM | –
COc1cc(C(=O)NCC(O)(c2ccc(OC)c(-c3ccc(F)c(Cl)c3)n2)C(F)(F)F)ccc1OC1CCCNC1=O (centres unmarked) [Compound 340] | – | 10 to 100 µM | – | < 1 µM
COc1cc(C(=O)NCC(=O)c2cc3c(c(-c4ccc(F)c(Cl)c4)n2)OCC3(C)C)ccc1OC1CCNC1=O (centres unmarked) [Compound 217] | < 1 µM | 10 to 100 µM | < 1 µM | –
COc1ccc(C(=O)NCC(O)c2cc(C)cc(-c3csc4c(F)cccc34)n2)cc1OC (centres unmarked) [Compound 111] | – | 10 to 100 µM | – | 1 to 50 µM
COc1cc(C(=O)NCC(C)(C)c2ccc(OC)c(-c3ccc(F)c(Cl)c3)n2)ccc1OCCO [Compound 368] | < 100 µM | 10 to 100 µM | < 1 µM | –
COCC(C)(N)c1cc(-c2ccc(F)c(Cl)c2)nc(C(O)(CNC(=O)c2ccc(OCCO)c(OC)c2)C(F)(F)F)c1 (centres unmarked) [Compound 541] | < 1 µM | 10 to 100 µM | < 1 µM | –
COc1ccc(C(O)(CNC(=O)c2ccc3c(c2)[nH]c(=O)n3C)C(F)(F)F)nc1-c1ccc(F)c(Cl)c1 (centres unmarked) [Compound 268] | < 10 µM | 10 to 100 µM | 1 to 50 µM | –
CNCC(O)(CNC(=O)c1ccc(OCCO)c(OC)c1)c1ccc(OC)c(-c2ccc(F)c(Cl)c2)n1 (centres unmarked) [Compound 177] | < 10 µM | > 100 µM | 1 to 50 µM | –
COc1cc(C(=O)NCC(O)(c2ccc(OC)c(-c3ccc(F)c(Cl)c3)n2)C2CC2)ccc1CCO (centres unmarked) [Compound 433] | – | 10 to 100 µM | – | < 1 µM
CCCn1nc(C(O)CNC(=O)c2ccc(OC)c(OC)c2)nc1-c1csc2c(F)cccc12 (centres unmarked) [Compound 107] | – | 10 to 100 µM | – | 1 to 50 µM
CCc1cc(-c2ccc(F)cc2)nc(C(C)(O)CNC(=O)c2ccc(OCCO)c(OC)c2)c1 (centres unmarked) [Compound 353] | < 1 µM | > 100 µM | < 1 µM | –
